Measurements reported in patent US9686984B2, “Macrocyclic picolinamides as fungicides” (DOW AGROSCIENCES LLC, priority 2014, dated 2017).
Where two headings read alike, the source gives them in different places.

Columns and labels:
Puccinia triticina = assay: Wheat Brown Rust (PUCCRT) disease control on wheat seedlings; assay type: in vivo; conditions: Low Volume (121.5 g/H)
Description: Technical grades of materials were dissolved in acetone, which were then mixed with nine volumes of water containing 110 ppm Triton X-100. The fungicide solutions were applied onto wheat seedlings using an automated booth sprayer to run-off. All sprayed plants were allowed to air dry prior to further handling. All fungicides were evaluated using the aforementioned method for their activity vs. all target diseases, unless stated otherwise. Wheat leaf blotch and brown rust activity were also evaluated using track spray applications, in which case the fungicides were formulated as EC formulations, containing 0.1% Trycol 5941 in the spray solutions. Wheat plants (variety Yuma) were grown from seed in a greenhouse in 50% mineral soil/50% soil-less Metro mix until the first leaf was fully emerged, with 7-10 seedlings per pot. These plants were inoculated with an aqueous spore suspension of Septoria tritici either prior to or after fungicide treatments. After inoculation the plants were kept in 100% relative humidity (one day in a dark dew chamber followed by two to three days in a lighted dew chamber at 20° C.) to permit spores to germinate and infect the leaf. The plants were then transferred to a greenhouse set at 20° C. for disease to develop. When disease symptoms were fully expressed on the 1st leaves of untreated plants, infection levels were assessed on a scale of 0 to 100 percent disease severity. Percent disease control was calculated using the ratio of disease severity on treated plants relative to untreated plants. Example B: Evaluation of Fungicidal Activity: Wheat Brown Rust (Puccinia triticina; Synonym: Puccinia recondita f. sp. tritici; Bayer code PUCCRT) Wheat plants (variety Yuma) were grown from seed in a greenhouse in 50% mineral soil/50% soil-less Metro mix until the first leaf was fully emerged, with 7-10 seedlings per pot. These plants were inoculated with an aqueous spore suspension of Puccinia triticina either prior to or after fungicide treatments. After inoculation the plants were kept in a dark dew room at 22° C. with 100% relative humidity overnight to permit spores to germinate and infect the leaf. The plants were then transferred to a greenhouse set at 24° C. for disease to develop. Fungicide formulation, application and disease assessment followed the procedures as described in the Example A.

Zymoseptoria tritici = assay: Leaf Blotch of Wheat (SEPTTR) disease control on wheat seedlings; assay type: in vivo; conditions: Low Volume (121.5 g/H)
Description: Example A: Evaluation of Fungicidal Activity: Leaf Blotch of Wheat (Mycosphaerella graminicola; Anamorph: Zymoseptoria tritici; Bayer code […]) Technical grades of materials were dissolved in acetone, which were then mixed with nine volumes of water containing 110 ppm Triton X-100. The fungicide solutions were applied onto wheat seedlings using an automated booth sprayer to run-off. All sprayed plants were allowed to air dry prior to further handling. All fungicides were evaluated using the aforementioned method for their activity vs. all target diseases, unless stated otherwise. Wheat leaf blotch and brown rust activity were also evaluated using track spray applications, in which case the fungicides were formulated as EC formulations, containing 0.1% Trycol 5941 in the spray solutions. Wheat plants (variety Yuma) were grown from seed in a greenhouse in 50% mineral soil/50% soil-less Metro mix until the first leaf was fully emerged, with 7-10 seedlings per pot. These plants were inoculated with an aqueous spore suspension of Septoria tritici either prior to or after fungicide treatments. After inoculation the plants were kept in 100% relative humidity (one day in a dark dew chamber followed by two to three days in a lighted dew chamber at 20° C.) to permit spores to germinate and infect the leaf. The plants were then transferred to a greenhouse set at 20° C. for disease to develop. When disease symptoms were fully expressed on the 1st leaves of untreated plants, infection levels were assessed on a scale of 0 to 100 percent disease severity. Percent disease control was calculated using the ratio of disease severity on treated plants relative to untreated plants.

[1] = 24 h, 1 Day Protectant, read-out: PUCCRT disease control, 1 DP
[2] = 72 h, 3 Day Curative, read-out: PUCCRT disease control, 3 DC
[3] = 24 h, 1 Day Protectant, read-out: SEPTTR disease control, 1 DP
[4] = 72 h, 3 Day Curative, read-out: SEPTTR disease control, 3 DC

SMILES | pest or weed control at 121.5 g/ha (Puccinia triticina; [1]) | pest or weed control at 121.5 g/ha (Puccinia triticina; [2]) | pest or weed control at 121.5 g/ha (Zymoseptoria tritici; [3]) | pest or weed control at 121.5 g/ha (Zymoseptoria tritici; [4])
COc1ccnc(C(=O)N[C@H]2CCOC[C@@H](Cc3ccccc3)[C@H](C)OC2=O)c1OCOC(C)=O [Compound 16] | > 70% | > 70% | < 70% | < 70%
CCCC[C@H]1OCC[C@H](NC(=O)c2nccc(OC)c2OCOC(C)=O)C(=O)O[C@@H](C)[C@@H]1Cc1ccccc1 [Compound 18] | > 70% | > 70% | > 70% | > 70%
COc1ccnc(C(=O)N[C@H]2CCO[C@H](Cc3ccccc3)[C@@H](Cc3ccccc3)[C@H](C)OC2=O)c1OCOC(C)=O [Compound 19] | > 70% | > 70% | > 70% | > 70%
COCC[C@H]1OCC[C@H](NC(=O)c2nccc(OC)c2OCOC(C)=O)C(=O)O[C@@H](C)[C@@H]1Cc1ccccc1 [Compound 20] | > 70% | > 70% | > 70% | > 70%
COc1ccnc(C(=O)N[C@H]2CCOC[C@@H](Cc3ccc(F)cc3)[C@H](C)OC2=O)c1OCOC(C)=O [Compound 21] | > 70% | > 70% | > 70% | < 70%
CC[C@H]1OCC[C@H](NC(=O)c2nccc(OC)c2OCOC(C)=O)C(=O)O[C@@H](C)[C@@H]1Cc1ccc(F)cc1 [Compound 22] | > 70% | > 70% | > 70% | > 70%
CCCC[C@H]1OCC[C@H](NC(=O)c2nccc(OC)c2OCOC(C)=O)C(=O)O[C@@H](C)[C@@H]1Cc1ccc(F)cc1 [Compound 23] | > 70% | > 70% | > 70% | > 70%
COc1ccnc(C(=O)N[C@H]2CCO[C@H](CCc3ccccc3)[C@@H](Cc3ccc(F)cc3)[C@H](C)OC2=O)c1OCOC(C)=O [Compound 24, ((2-(((2R,3S,4S,7S)-3-(4-fluorobenzyl)-4-methyl-6-oxo-2-phenethyl-1,5-dioxonan-7-yl)carbamoyl)-4-methoxypyridin-3-yl)oxy)methyl acetate] | > 70% | > 70% | > 70% | > 70%
COCC[C@H]1OCC[C@H](NC(=O)c2nccc(OC)c2OCOC(C)=O)C(=O)O[C@@H](C)[C@@H]1Cc1ccc(F)cc1 [Compound 25] | > 70% | > 70% | < 70% | < 70%
COc1ccnc(C(=O)N[C@H]2CCOC[C@@H](Cc3ccccc3-c3ccccc3)[C@H](C)OC2=O)c1OCOC(C)=O [Compound 28] | > 70% | > 70% | > 70% | > 70%
COc1ccnc(C(=O)N[C@H]2CCOC[C@@H](CCC(C)C)[C@H](C)OC2=O)c1OCOC(C)=O [Compound 30] | > 70% | > 70% | > 70% | > 70%
CCCC[C@H]1[C@H](C)OC(=O)[C@@H](NC(=O)c2nccc(OC)c2OCOC(C)=O)CCO[C@@H]1CCc1ccccc1 [Compound 31] | > 70% | > 70% | > 70% | > 70%
